Measured values published in PMC7966503, “Deciphering the Pharmacological Mechanisms of Guizhi-Fuling Capsule on Primary Dysmenorrhea Through Network Pharmacology” (Frontiers in Pharmacology, 2021).
“And” between values parts separate entries of the source, which are not always exact repeats. Equal values may be shown once. Read-outs that look alike come from different tables or passages of the source.

Experiments:
[1] = target: T1, recombinant human COX2 (Homo sapiens, UniProt P35354); assay: COX2 activity assay (cyclooxygenase-2 inhibitor screening kit, fluorescence); format: biochemical; details: duplicated samples
T1 construct: purchased Beyotime #S0168
T1 sequence (P35354 18-604): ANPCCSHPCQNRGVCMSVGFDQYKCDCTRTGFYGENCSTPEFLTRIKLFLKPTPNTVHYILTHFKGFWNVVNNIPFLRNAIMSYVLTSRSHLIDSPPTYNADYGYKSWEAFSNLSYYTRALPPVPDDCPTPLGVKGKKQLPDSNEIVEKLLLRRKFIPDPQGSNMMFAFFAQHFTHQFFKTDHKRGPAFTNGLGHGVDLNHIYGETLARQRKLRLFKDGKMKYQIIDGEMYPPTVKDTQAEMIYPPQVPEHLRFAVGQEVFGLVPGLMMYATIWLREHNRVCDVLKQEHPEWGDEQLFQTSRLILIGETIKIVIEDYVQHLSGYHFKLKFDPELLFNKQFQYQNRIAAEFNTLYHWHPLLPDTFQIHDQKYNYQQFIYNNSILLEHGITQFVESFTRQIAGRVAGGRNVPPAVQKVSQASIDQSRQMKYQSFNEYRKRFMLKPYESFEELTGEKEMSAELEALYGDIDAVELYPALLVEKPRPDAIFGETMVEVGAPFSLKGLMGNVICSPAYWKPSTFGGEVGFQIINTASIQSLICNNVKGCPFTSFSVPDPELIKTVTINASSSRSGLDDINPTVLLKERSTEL
From the text: And then we selected predicted compounds and a specific target for preliminary analysis of their dosages and ratios as a starting point. In vitro enzyme activity assays were used to analyze the relationship between predicted GZFLC compounds’ different dosages and their intervention intensity on a specific target COX2, and to investigate GZFLC’s intervention intensity on COX2 under the specific ratio of GZFLC compounds which is relatively fixed in GZFLC. The content in the GZFLC (Jiangsu Kanion Pharmaceutical Co., Ltd. Jiangsu, China, No. 170601) was weighed and extracted with dimethyl sulfoxide (DMSO, 32.308:1, W/V, mg/ml) at 37°C for 30 min. The liquid was collected by centrifugation, and the supernatant was filtered through a 0.22 μ filter. The effect of GZFLC or pure chemicals including 1,2,3,4,6-penta-O-galloyl-beta-D-glucopyranose (purity (%) ≥98%, CAS: 14,937–32–7, Pubchem CID: 65238, Nanjing SenBeiJia Biological Technology Co., Ltd.), galloylpaeoniflorin (purity (%) ≥98%, CAS: 122,965–41–7, Pubchem CID: 46882879, Nanjing SenBeiJia Biological Technology Co., Ltd.), ethyl gallate (purity (%)≥98%, CAS: 831–61–8, Pubchem CID: 13250, Nanjing SenBeiJia Biological Technology Co., Ltd.) and gallic acid (purity (%)≥98%, CAS: 149–91–7, Pubchem CID: 370, Nanjing SenBeiJia Biological Technology Co., Ltd.) on COX2 activity was measured using cyclooxygenase-2 inhibitor screening kit (Beyotime, Cat. No. #S0168). Briefly, the recombinant human COX2 assay mixture (total volume = 90μL/well) consisting of assay buffer, cofactor, COX2 enzyme, and test compound (diluted in DMSO, 5.56% DMSO finally in assay) was incubated at 25°C for 5 min. Detection of the product was performed by adding probe (5μL/well). Arachidonic acid was added and the reaction was allowed to proceed for 15 min at 37°C. The fluorescence of the resulting solution was measured using SpectraMax M2e multilabel plate reader (Molecular Devices, United Kingdom). […] Data was represented as X¯±SD of duplicated samples. The effect of the samples on COX2 was calculated using the following equation: Relative activity of COX2(%)=(RFUsample−RFUBW/RFUA−RFUBW)×100%.

[2] = system: oxytocin-induced dysmenorrhea murine model; assay: Writhing response in oxytocin-induced dysmenorrhea murine model; format: in vivo, ICR mice; details: 0.1 g/kg oral; within 30 min after oxytocin; mean±SEM, n = 10; model group 32.6 ± 8.5
Method: (§1) Oxytocin-induced dysmenorrhea in mice was performed according to the method previously reported ([Sun et al., 2002]). […] Except for the normal group (subcutaneous injection of saline), the other groups were administrated by subcutaneous estradiol benzoate injection (0.05 ml/mouse on the first and 10th day, and 0.025 ml/mouse on the remaining days) for ten consecutive days. […] On the 10th day, oxytocin (0.2 ml/2 IU/mouse) was administered by peritoneal injection 1 h after the last administration. The number of animal writhing times was observed and recorded within 30 min after injection of oxytocin. […] The mice were sacrificed immediately. The uterus tissues were fixed with 10% formalin for further study.

[3] = system: oxytocin-induced dysmenorrhea murine model; assay: Uterine histopathology (H&E) in oxytocin-induced dysmenorrhea murine model; format: in vivo, ICR mice; details: ibuprofen 0.1 g/kg; GZFLC 0.54 and 1.08 g/kg oral, seven days
Method: as §1, with “study. The uterus tissues were fixed in 10% formalin and stained with hematoxylin and eosin (H&E). […] According to the severity of the lesion, it was recorded as one point (mild), two points (moderate), three points (severe), four points (extremely severe), no lesion was recorded as 0 point. All scores were accumulated and the average score ( X¯±SD ) of each animal in each group was calculated.” for “study.”

[4] = read-out: IC50, inhibition of the activity of COX2 in vitro (converted)

IC50 [1, 4]	Compound	further results
–	O=C(O)c1cc(O)c(O)c(O)c1 [gallic acid]	IC50 ([1]; IC50, inhibition of the activity of COX2 in vitro): 1950 nM and 1940 nM
380 nM and 383 nM	O=C(OC[C@H]1O[C@@H](OC(=O)c2cc(O)c(O)c(O)c2)[C@H](OC(=O)c2cc(O)c(O)c(O)c2)[C@@H](OC(=O)c2cc(O)c(O)c(O)c2)[C@@H]1OC(=O)c1cc(O)c(O)c(O)c1)c1cc(O)c(O)c(O)c1 [1,2,3,4,6-penta-O-galloyl-beta-D-glucopyranose]	–
–	CC(C)Cc1ccc(C(C)C(=O)O)cc1 (stereo not drawn) [ibuprofen]	number of writhing times [2]: 5.9 ± 2.1; degree of uterine lesions (histopathology, H&E) [3]: reducing the degree of uterine lesions
1110 nM	CCOC(=O)c1cc(O)c(O)c(O)c1 [ethyl gallate]	–

Compound	IC50 [1, 4]	further results
C[C@@]12C[C@@]3(O)O[C@@H](O1)[C@]1(COC(=O)c4ccccc4)[C@H]3C[C@@]12O[C@@H]1O[C@H](COC(=O)c2cc(O)c(O)c(O)c2)[C@@H](O)[C@H](O)[C@H]1O [galloylpaeoniflorin]	740 nM and 743 nM	–
